Experimental data published in patent US20090238808A1, “Process for the identification of novel enzyme interacting compounds” (priority 2005, published 2009).

Key:
Test in all cases: Kinobeads elution with test compound, mouse brain lysate, MS
Type in all cases: binding
Settings in all cases: kinase released from kinobeads by specific elution
PYK2 = molecular target: T1, PYK2 (Mus musculus, UniProt Q9QVP9)
T1 construct: from tissue; host or cells: mouse brain
Protocol: (§1) This example illustrates competitive elution of proteins bound to kinobeads with non-modified test compounds (see particularly the fourth aspect of the invention). The kinobeads (as described in example 1) were contacted with mouse brains lysate, bound proteins were eluted with various test compounds and the released proteins were analysed by mass spectrometry.
(§2) The kinobeads were contacted with mouse brain lysate under conditions that allow the binding of the proteins in the lysate to the ligands. The binding conditions were close to physiological by choosing suitable buffer conditions preserving the function of the proteins. After removing non-captured proteins through a gentle washing procedure the bound proteins were contacted with a test compound for protein elution.
(§3) Various test compounds (see section 2.7) were used to release bound proteins following these steps:
(§4) 1. Resuspend beads with bound proteins (section 2.4) in 1×DP buffer/0.2% NP-40 as 1:3 slurry (volume/volume). 2. Transfer 20 μl the 1:3 slurry into MoBiTech columns (equivalent to 5 μl of beads). 3. Place the column into an Eppendorf tube and centrifuge it for 15 seconds at 800 rpm at 4° C. Close columns with lower lid. 4. Add 10 μl elution buffer containing 1.0 mM of the test compound (concentration ranges of 0.1 to 1.0 mM are suitable). As a control use elution buffer containing 2% DMSO or 2% DMF dependent on the solvent used for dissolving the test compound. Close column with upper lid. 5. Incubate for 30 minutes at 4° C. in an Eppendorf incubator at 700 rpm. 6. Open column (first top, then bottom), put column back into siliconized tube (SafeSeal Microcentrifuge Tubes, cat. no 11270, Sorenson BioScience, Inc.). To harvest the eluate centrifuge 2 minutes at 2.000 rpm in table top centrifuge at room temperature. The typical volume of the eluate is approximately 15 μl. 7. Add 5 μl 4× NuPAGE SDS Sample Buffer (Invitrogen, NP0007) containing 100 mM DTT (DTT has to be added just prior to use). 8. Incubate for 30 minutes at 50° C. 9. Add 1/10 volume of 200 mg/ml iodoacetamide, incubate for 30 min at room temperature, protect from light. This reaction leads to the alkylation of cysteines for mass spectrometry. 10. Before loading samples onto the gel, centrifuge samples for 5 minutes at 15.000 rpm in order to remove precipitates. 11. For protein separation apply 10 μl sample to NuPAGE 4-12% Bis-Tris gel (Invitrogen, NPO335). 2.6 Preparation of Stock Solutions used in this Protocol
(§5) Search criteria varied depending on which mass spectrometer was used for the analysis.

CaMK2b = CaMK2b (Mus musculus, UniProt P28652)
Protocol: as §1, §2, §3, §4, §5

CaMK2a = molecular target: T2, CaMK2a (Mus musculus, UniProt P11798)
T2 construct: […]; from tissue; host or cells: mouse brain
T2 sequence (P11798 whole entry): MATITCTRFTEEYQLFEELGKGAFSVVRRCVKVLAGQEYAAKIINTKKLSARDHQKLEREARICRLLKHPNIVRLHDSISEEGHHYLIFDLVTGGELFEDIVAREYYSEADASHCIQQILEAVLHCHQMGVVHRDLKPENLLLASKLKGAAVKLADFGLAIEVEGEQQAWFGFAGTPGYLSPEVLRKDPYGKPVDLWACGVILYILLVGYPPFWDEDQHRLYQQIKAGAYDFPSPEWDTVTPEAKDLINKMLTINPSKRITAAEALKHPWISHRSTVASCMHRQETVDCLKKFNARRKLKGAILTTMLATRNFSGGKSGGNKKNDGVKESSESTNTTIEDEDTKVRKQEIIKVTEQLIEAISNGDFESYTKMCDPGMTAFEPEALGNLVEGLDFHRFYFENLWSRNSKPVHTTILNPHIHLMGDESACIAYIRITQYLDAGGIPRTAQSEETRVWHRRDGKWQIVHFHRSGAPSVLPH
Protocol: as §1, §2, §3, §4, §5

Erk1ps5 = molecular target: T3, Erk1ps5 (Mus musculus, UniProt Q63844)
T3 construct: […]; from tissue; host or cells: mouse brain
T3 sequence (Q63844 2-380 limits assumed): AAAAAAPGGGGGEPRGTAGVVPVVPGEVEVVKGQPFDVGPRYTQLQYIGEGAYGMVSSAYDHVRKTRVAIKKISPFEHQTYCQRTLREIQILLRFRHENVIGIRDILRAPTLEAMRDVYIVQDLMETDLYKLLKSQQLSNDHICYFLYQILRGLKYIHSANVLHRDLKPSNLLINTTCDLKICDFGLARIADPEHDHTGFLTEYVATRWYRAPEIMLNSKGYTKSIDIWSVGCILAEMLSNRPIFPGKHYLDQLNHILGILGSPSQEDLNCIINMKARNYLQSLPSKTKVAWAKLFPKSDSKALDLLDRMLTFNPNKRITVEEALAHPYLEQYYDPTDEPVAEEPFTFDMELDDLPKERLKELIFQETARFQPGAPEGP
Protocol: as §1, §2, §3, §4, §5

CSK = CSK (Mus musculus, UniProt P41241)
Chain of CSK (P41241 whole entry): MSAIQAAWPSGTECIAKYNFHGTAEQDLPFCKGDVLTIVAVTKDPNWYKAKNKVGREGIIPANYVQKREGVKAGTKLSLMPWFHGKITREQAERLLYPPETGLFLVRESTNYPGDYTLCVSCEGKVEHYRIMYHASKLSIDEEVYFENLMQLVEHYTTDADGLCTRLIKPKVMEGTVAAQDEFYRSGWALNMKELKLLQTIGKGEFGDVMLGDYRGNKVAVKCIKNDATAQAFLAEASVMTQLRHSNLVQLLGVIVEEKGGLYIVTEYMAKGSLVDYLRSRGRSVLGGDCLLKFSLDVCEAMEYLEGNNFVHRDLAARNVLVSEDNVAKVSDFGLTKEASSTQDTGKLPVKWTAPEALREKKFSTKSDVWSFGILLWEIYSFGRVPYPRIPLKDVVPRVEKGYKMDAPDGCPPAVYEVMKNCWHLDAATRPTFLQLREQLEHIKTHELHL
Protocol: as §1, §2, §3, §4, §5

FYN = molecular target: T4, FYN (Mus musculus, UniProt P39688)
T4 construct: […]; from tissue; host or cells: mouse brain
Protocol: as §1, §2, §3, §4, §5

FAK = FAK (Mus musculus, UniProt P34152)
Protocol: as §1, §2, §3, §4, §5

CDK5 = CDK5 (Mus musculus, UniProt P49615)
Protocol: as §1, §2, §3, §4, §5

RSK3 (Mus musculus) = tested on: T5, RSK3 (Mus musculus)
T5 construct: from tissue; host or cells: mouse brain
Protocol: as §1, §2, §3, §4, §5

RSK1 (Mus musculus) = tested on: T6, RSK1 (Mus musculus)
T6 construct: from tissue; host or cells: mouse brain
T6 sequence (Q9WUT3 whole entry): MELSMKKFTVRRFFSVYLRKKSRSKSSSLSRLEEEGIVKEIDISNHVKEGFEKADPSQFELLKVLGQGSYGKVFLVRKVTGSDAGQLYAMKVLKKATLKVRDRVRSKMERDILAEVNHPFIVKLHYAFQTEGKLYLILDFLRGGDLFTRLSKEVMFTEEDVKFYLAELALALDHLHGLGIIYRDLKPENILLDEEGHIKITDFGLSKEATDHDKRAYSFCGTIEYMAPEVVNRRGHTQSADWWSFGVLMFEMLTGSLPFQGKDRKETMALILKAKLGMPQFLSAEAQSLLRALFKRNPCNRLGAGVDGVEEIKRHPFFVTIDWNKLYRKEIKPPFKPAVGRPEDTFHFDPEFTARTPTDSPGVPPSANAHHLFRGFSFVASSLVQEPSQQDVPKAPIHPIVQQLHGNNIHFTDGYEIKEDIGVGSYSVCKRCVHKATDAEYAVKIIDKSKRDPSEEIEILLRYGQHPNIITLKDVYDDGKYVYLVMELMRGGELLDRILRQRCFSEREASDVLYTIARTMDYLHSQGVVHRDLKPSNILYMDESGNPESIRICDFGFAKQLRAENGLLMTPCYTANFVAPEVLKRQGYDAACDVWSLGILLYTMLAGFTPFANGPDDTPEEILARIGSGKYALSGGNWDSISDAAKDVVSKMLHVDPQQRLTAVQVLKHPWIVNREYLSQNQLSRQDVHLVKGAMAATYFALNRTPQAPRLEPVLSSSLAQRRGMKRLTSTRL
Protocol: as §1, §2, §3, §4, §5

GSK3Aps = molecular target: T7, GSK3Aps (Mus musculus, UniProt Q2NL51)
T7 construct: from tissue; host or cells: mouse brain
Protocol: as §1, §2, §3, §4, §5

JNK2 = molecular target: T8, JNK2 (Mus musculus, UniProt Q9WTU6)
T8 construct: from tissue; host or cells: mouse brain
T8 sequence (Q9WTU6 whole entry): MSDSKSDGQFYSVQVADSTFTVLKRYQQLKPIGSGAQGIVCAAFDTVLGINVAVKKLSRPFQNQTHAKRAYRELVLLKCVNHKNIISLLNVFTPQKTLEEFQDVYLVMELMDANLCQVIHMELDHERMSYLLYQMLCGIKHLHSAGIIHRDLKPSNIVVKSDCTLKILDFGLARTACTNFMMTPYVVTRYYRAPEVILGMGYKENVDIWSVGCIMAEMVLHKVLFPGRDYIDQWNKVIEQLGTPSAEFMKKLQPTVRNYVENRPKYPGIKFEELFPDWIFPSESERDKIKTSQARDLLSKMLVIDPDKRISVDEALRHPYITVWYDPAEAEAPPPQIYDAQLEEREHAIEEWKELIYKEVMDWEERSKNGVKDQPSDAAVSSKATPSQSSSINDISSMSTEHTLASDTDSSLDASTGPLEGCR
Protocol: as §1, §2, §3, §4, §5

CaMK2d = molecular target: T9, CaMK2d (Mus musculus, UniProt Q6PHZ2)
T9 construct: […]; from tissue; host or cells: mouse brain
T9 sequence (Q6PHZ2 whole entry): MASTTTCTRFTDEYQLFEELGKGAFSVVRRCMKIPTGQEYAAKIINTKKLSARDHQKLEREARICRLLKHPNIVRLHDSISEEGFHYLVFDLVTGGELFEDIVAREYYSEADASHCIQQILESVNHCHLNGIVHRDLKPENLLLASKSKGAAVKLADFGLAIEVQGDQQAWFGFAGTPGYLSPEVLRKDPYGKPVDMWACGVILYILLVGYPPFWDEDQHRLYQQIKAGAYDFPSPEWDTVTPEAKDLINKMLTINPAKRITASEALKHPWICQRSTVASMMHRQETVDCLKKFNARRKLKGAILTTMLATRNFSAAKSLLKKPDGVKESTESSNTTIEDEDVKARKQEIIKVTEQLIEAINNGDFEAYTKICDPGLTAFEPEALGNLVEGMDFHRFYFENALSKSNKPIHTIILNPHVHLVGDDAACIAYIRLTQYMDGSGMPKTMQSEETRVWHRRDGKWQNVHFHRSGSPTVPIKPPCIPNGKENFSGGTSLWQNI
Protocol: as §1, §2, §3, §4, §5

EphA5 = EphA5 (Mus musculus, UniProt Q60629)
Protocol: as §1, §2, §3, §4, §5

GSK3B = molecular target: T10, GSK3B (Mus musculus, UniProt Q9WV60)
T10 construct: from tissue; host or cells: mouse brain
T10 sequence (Q9WV60 whole entry): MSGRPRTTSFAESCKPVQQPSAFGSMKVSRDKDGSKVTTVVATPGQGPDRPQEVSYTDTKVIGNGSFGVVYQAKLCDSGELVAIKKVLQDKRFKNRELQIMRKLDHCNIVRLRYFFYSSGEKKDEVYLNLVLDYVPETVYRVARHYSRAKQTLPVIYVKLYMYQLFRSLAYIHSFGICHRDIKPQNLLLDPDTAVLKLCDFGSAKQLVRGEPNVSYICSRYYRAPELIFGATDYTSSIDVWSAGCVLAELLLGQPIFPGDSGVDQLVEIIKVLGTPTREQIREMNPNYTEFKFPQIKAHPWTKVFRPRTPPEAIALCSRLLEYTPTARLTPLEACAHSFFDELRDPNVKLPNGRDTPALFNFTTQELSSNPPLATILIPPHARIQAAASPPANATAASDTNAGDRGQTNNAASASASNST
Description: (§6) This example illustrates competitive elution of proteins bound to kinobeads with non-modified test compounds (see particularly the fourth aspect of the invention).
as §2, §3
as §4, with “Open column (first top, then bottom), put column back into siliconized tube (SafeSeal Microcentrifuge Tubes, cat. no 11270, Sorenson BioScience, Inc.).” left out, “For protein separation apply 10 μl sample to NuPAGE 4-12% Bis-Tris gel (Invitrogen, NPO335).” left out
as §5

CaMK2g = CaMK2g (Mus musculus, UniProt Q923T9)
Chain of CaMK2g (Q923T9 whole entry): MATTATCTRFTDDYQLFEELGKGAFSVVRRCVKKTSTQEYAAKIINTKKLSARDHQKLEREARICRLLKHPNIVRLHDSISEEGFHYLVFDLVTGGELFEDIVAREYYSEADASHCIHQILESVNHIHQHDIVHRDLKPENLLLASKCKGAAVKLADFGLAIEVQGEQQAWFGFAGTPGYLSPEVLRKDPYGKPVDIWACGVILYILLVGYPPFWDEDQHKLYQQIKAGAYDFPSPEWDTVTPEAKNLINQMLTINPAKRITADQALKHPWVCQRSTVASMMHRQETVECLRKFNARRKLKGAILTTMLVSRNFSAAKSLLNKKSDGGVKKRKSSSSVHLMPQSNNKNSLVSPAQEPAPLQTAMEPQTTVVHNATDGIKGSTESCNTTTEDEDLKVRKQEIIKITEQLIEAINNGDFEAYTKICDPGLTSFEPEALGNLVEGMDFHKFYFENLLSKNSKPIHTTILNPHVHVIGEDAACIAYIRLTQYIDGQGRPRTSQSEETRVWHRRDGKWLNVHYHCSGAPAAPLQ
Description: as §6, §2, §3
as §4, with “Open column (first top, then bottom), put column back into siliconized tube (SafeSeal Microcentrifuge Tubes, cat. no 11270, Sorenson BioScience, Inc.).” left out, “For protein separation apply 10 μl sample to NuPAGE 4-12% Bis-Tris gel (Invitrogen, NPO335).” left out
as §5

T1 sequence (Q9QVP9 whole entry): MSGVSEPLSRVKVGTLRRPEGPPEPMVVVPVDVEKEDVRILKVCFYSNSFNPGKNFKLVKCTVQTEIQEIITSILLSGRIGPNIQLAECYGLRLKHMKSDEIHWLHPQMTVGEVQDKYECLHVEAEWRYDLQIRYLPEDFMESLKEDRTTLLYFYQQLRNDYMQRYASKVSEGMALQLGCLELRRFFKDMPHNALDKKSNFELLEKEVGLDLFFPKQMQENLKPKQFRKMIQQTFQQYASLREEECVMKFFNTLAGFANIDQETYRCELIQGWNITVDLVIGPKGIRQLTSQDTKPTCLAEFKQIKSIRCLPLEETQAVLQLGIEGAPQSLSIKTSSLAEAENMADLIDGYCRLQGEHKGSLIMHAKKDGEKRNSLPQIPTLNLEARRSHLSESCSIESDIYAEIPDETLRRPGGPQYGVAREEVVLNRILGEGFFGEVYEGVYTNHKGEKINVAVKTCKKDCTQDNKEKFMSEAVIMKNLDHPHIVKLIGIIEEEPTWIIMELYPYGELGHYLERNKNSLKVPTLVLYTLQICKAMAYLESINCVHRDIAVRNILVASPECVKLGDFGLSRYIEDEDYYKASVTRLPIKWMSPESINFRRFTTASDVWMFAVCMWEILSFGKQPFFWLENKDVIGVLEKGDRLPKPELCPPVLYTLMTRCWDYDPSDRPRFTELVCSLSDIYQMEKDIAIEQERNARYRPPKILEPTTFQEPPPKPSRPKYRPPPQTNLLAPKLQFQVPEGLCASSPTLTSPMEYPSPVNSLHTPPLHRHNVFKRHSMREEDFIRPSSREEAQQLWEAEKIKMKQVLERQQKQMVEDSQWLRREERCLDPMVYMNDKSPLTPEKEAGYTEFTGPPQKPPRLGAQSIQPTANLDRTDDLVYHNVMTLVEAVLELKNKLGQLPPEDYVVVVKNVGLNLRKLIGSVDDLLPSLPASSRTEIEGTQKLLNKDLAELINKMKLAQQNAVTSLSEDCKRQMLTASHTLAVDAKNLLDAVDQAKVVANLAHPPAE

SMILES	mass spectrometry score, PYK2 (PYK2)	number of identified peptides, PYK2 (PYK2)	mass spectrometry score, CaMK2b (CaMK2b)	number of identified peptides, CaMK2b (CaMK2b)	mass spectrometry score, CaMK2a (CaMK2a)	number of identified peptides, CaMK2a (CaMK2a)	mass spectrometry score, Erk1ps5 (Erk1ps5)	number of identified peptides, Erk1ps5 (Erk1ps5)	mass spectrometry score, CSK (CSK)	number of identified peptides, CSK (CSK)	mass spectrometry score, FYN (FYN)	mass spectrometry score, CDK5 (CDK5)	number of identified peptides, CDK5 (CDK5)	mass spectrometry score, RSK1 (RSK1 (Mus musculus))	number of identified peptides, RSK1 (RSK1 (Mus musculus))	mass spectrometry score, GSK3Aps (GSK3Aps)	number of identified peptides, GSK3Aps (GSK3Aps)	mass spectrometry score, CaMK2d (CaMK2d)	number of identified peptides, CaMK2d (CaMK2d)	number of identified peptides, GSK3B (GSK3B)	also measured
Cn1c(=O)c(-c2c(Cl)cccc2Cl)cc2cnc(Nc3ccc(CN)cc3)cc21 [CZC7324]	1401	42	499	14	513	11	557	77	809	19	279	462	11	626	19	154	3	328	7	19	number of identified peptides, FYN (FYN): 6; mass spectrometry score, FAK (FAK): 322; number of identified peptides, FAK (FAK): 10; mass spectrometry score, RSK3 (RSK3 (Mus musculus)): 312; mass spectrometry score, JNK2 (JNK2): 702; number of identified peptides, JNK2 (JNK2): 21; mass spectrometry score, EphA5 (EphA5): 144; number of identified peptides, EphA5 (EphA5): 3; mass spectrometry score, GSK3B (GSK3B): 789
NCc1ccc(Nc2ncc(F)c(Nc3ccccc3)n2)cc1 [CZC00008004]	1228	58	685	30	966	43	386	26				794	27	312	9	635	27	444	11	26	mass spectrometry score, FAK (FAK): 257; number of identified peptides, FAK (FAK): 8; mass spectrometry score, JNK2 (JNK2): 662; number of identified peptides, JNK2 (JNK2): 18; mass spectrometry score, CaMK2g (CaMK2g): 527; number of identified peptides, CaMK2g (CaMK2g): 27; mass spectrometry score, GSK3B (GSK3B): 881
CNC1CC2OC(C)(C1OC)n1c3ccccc3c3c4c(c5c6ccccc6n2c5c31)C(=O)NC4 (stereo not shown) [CZC9280]	1978	82	1182	72	1027	69	71	2	307	8	314	861	43	1634	47	868	47	822	40	59	number of identified peptides, FYN (FYN): 6; mass spectrometry score, RSK3 (RSK3 (Mus musculus)): 721; number of identified peptides, CaMK2g (CaMK2g): 25
CC(C)[C@H](CO)Nc1nc(Nc2ccc(C(=O)O)c(Cl)c2)c2ncn(C(C)C)c2n1 [Purvalanol B, reference compound]	1909	48	679	16	978	27	749	48	492	12	268	1086	41	1177	32	357	6	473	12	30	number of identified peptides, FYN (FYN): 6; mass spectrometry score, FAK (FAK): 269; number of identified peptides, FAK (FAK): 6; mass spectrometry score, RSK3 (RSK3 (Mus musculus)): 401; mass spectrometry score, JNK2 (JNK2): 277; number of identified peptides, JNK2 (JNK2): 7; mass spectrometry score, EphA5 (EphA5): 330; number of identified peptides, EphA5 (EphA5): 14; mass spectrometry score, GSK3B (GSK3B): 1037
CCCCCCCCCCCCOS(=O)(=O)[O-].[Na+] [SDS]	809	39	615	75	786	74	239	8	365	15	407	604	21	825	45	585	77	434	36	72	number of identified peptides, FYN (FYN): 17; mass spectrometry score, FAK (FAK): 160; number of identified peptides, FAK (FAK): 6; mass spectrometry score, RSK3 (RSK3 (Mus musculus)): 107; mass spectrometry score, JNK2 (JNK2): 369; number of identified peptides, JNK2 (JNK2): 20; mass spectrometry score, EphA5 (EphA5): 246; number of identified peptides, EphA5 (EphA5): 9; mass spectrometry score, CaMK2g (CaMK2g): 379; number of identified peptides, CaMK2g (CaMK2g): 42; mass spectrometry score, GSK3B (GSK3B): 763
